Measured values published in patent publication US9321758B2, “Amorphous salt of a macrocyclic inhibitor of HCV” (Janssen Pharmaceuticals, Inc., priority 2009, dated 2016).

Key:
[1] = Adsorption-Desorption (DVS), dynamic vapor sorption; format: physicochemical; conditions: for water adsorbed: at high relative humidity
Protocol: Amorphous TMC435 (19 mg) was transferred into a SMS (Surface Measurement Systems Ltd.) dynamic vapor sorption model DVS-1 and the weight change was recorded with respect to the atmospheric humidity at 25° C.

[2] = Long-term storage stability of the amorphous form by powder XRD; format: physicochemical; conditions: stored during 1 year, 8 months and 23 days
Protocol: This means that the amorphous Na salt of TMC435 allows stable storage during a normal shelf life period. X-ray powder diffraction (XRPD) analysis was carried out on a Philips X′PertPRO MPD diffractometer PW3050/60 with generator PW3040. The instrument was equipped with a Cu LFF X-ray tube PW3373/10. The compound was spread on a zero background sample holder.

[3] = Water solubility; format: physicochemical
[4] = Clinical investigations, tolerability in patients; format: in vivo

Row | SMILES | moisture remaining on the product during the desorption cycle ([1]; DVS desorption cycle, 25° C.) [%] | weight loss during the initial drying step ([1]; DVS, drying 60 min under dry nitrogen, 25° C.) [%] | water adsorbed ([1]; 25° C.) | water adsorbed ([1]; 25° C., listed as sodium salt of compound I) | stability when water is absorbed ([1]; brought into contact with humidity) | hygroscopicity ([1]; listed as Amorphous Sodium Salt Prepared According to Example 1) | hygroscopicity ([1]; listed as sodium salt of compound I) | solid form after DVS (IR and XRD) ([1]; product obtained after DVS) | powder XRD pattern after storage compared with pattern shortly after preparation [2] | water solubility [3] | tolerability in patients [4]
1 | COc1ccc2c(O[C@@H]3C[C@H]4C(=O)N[C@]5(C(=O)[N-]S(=O)(=O)C6CC6)C[C@H]5/C=C\CCCCN(C)C(=O)[C@@H]4C3)cc(-c3nc(C(C)C)cs3)nc2c1C.[Na+] [amorphous sodium salt of TMC435] | 1.61 | 2.03 | up to 13% | up to 13.1% | remains stable | Hygroscopic | hygroscopic | remained amorphous | remained essentially unchanged | – | –
2 | COc1ccc2c(O[C@@H]3C[C@H]4C(=O)N[C@]5(C(=O)NS(=O)(=O)C6CC6)C[C@H]5/C=C\CCCCN(C)C(=O)[C@@H]4C3)cc(-c3nc(C(C)C)cs3)nc2c1C [TMC435, (1R,4R,6S,15R,17R)-cis-N-[17-[2-(4-isopropylthiazol-2-yl)-7-methoxy-8-methyl-quinolin-4-yloxy]-13-methyl-2,14-dioxo-3,13-diazatricyclo[13.3.0.0^4,6]octadec-7-ene-4-carbonyl] (cyclopropyl)sulfonamide] | – | – | – | – | – | – | – | – | – | poorly water-soluble | well-tolerated
